Drawing on a melting point compilation (Tetko et al.; mined from patent text by program, amines drawn as free bases though some values may be those of a salt), this text covers melting point for 84 compounds.

Residues, ends and D or L forms follow the SMILES beside them. *: point of attachment. NHPhenethyl = c1ccc(CCN*)cc1

As a reminder, the melting point is the temperature, or range, at which the solid turns liquid. Consider `NCC1Cc2cc(-c3ccccc3)cc(-c3cc(Cl)ccc3Cl)c2O1` (centres undefined), for which the melting point lay in the range of 159 to 162 °C.
`CCn1c(=O)c(-c2c(Cl)cccc2Cl)cc2cnc(Nc3ccccc3)nc21` registered a melting point of 223 to 225 °C.
`O=C(CCCCN1CCC(Cc2ccccc2)CC1)c1ccc2c(c1)Cc1cc(C(=O)CCCCN3CCC(Cc4ccccc4)CC3)ccc1-2`: the melting point was 147 to 149 °C.
For the compound `Nc1ncnc2c1c(-c1ccc(Oc3ccccc3C=O)cc1)cn2C1CCOC1` (centres undefined), the melting point lay within 185 to 187 °C.
In the case of `Cc1cc2c(c(C)c1O)C(C)CN2C(=O)C(C)(C)C` (centres undefined) it was 144 to 145 °C; in that of `CCCCCCCCCCCCCCOc1ccc(CO)cc1`, 72 to 74 °C.
The compound `CCCn1cc2c(C3C(=O)Nc4ccc(Br)cc43)nc(Cl)nc2n1` (centres undefined) came in with a melting point of more than 300 °C.
As for `Cc1cc(C)c2ncc(C(=O)O)c(-c3ccccc3Cl)c2c1`, the figure is 234 to 235 °C.
Regarding `CN(O)CCc1ccc2c(c1)C(=O)c1ccccc1CO2`, the melting point fell in the range of 101 to 102 °C.
`COC(=O)c1cn(C2CC2)c2c(OC)c(N3CCC(CN)(CF)C3)c(F)cc2c1=O` (centres undefined) returned a melting point of 143 to 145 °C.
`COc1cc(C(C)N(O)C(N)=O)ccc1OCCc1ccccc1` (centres undefined) gave a melting point of 112 to 115 °C.
As for `CC(C)(C)[N+]([O-])=CCc1ccccc1`, the figure is 143 °C; as for `O=C1CSc2cccc(F)c2N1`, 190 to 191 °C.
Take `C(=Cc1ccccc1)CN1CCN(C(c2ccccc2)c2ccccc2)CC1`: the melting point came to 110 °C.
As for `CCCn1ccc(=O)c(OC(=O)NCC(=O)OCC)c1C`, the figure is 96 to 97 °C; as for `CC(C)(N)[C@H]1CCN(c2c(F)cc3c(=O)c(C(=O)O)cn(C4CC4)c3c2F)C1`, 261 to 264 °C; as for `Clc1ccc(-c2nc(Br)cnc2Br)cc1`, 123 to 125 °C.
In the case of `Cc1cc(-c2cncc(OC3SCC(O)C(O)C3O)c2)ccc1C#N` (centres undefined) it was 198 to 200 °C; in that of `CC1CCC(c2ccc(Cl)c(Cl)c2)=NN1S(=O)(=O)c1ccc(I)cc1` (centres undefined), 194 to 196 °C.
Take `C=CCn1cc(C(O)(c2ccc3c(cnn3-c3ccc(F)cc3)c2)C(F)(F)F)c2ccn(C)c(=O)c21` (centres undefined): the melting point lay in the range of 91 to 93 °C.
For `CCC(c1ccccc1)(c1ccccc1)c1ccnc(C(=O)O)c1`, the melting point fell in the range of 191 to 193 °C.
In the case of `O=c1c2c(Cc3ccccc3C(F)(F)F)n[nH]c2c2cccnc2n1-c1cccc(C(F)(F)F)c1` it was 260 to 264 °C; in that of `CCOC(=O)C(=O)Nc1c([N+](=O)[O-])cc(C#N)c2ccccc12`, 178 °C; in that of `Cc1ccc(-c2ccc(C(=O)Nc3ccc4cc(CN5CCCC5)cnc4c3F)cc2)cc1`, 210 to 213 °C.
For `CC[C@H](C)[C@H](NC(=O)[C@@H](N)CS)C(=O)NCCc1ccccc1` (H-Cys-Ile-NHPhenethyl), the melting point was in the range of 156 to 159 °C.
In the case of `CC(C)Oc1ccc(Oc2ccc3c(c2)c(C(=O)O)c(CC(=O)O)n3-c2cccc(Cl)c2)cc1`, the melting point lay within 188 to 190 °C.
As for `NC(=O)[C@@H]1CCCN1C(=O)/C=C/S(=O)(=O)c1ccccc1`, the figure is 157 to 158 °C.
In the case of `O=C(Nc1nc2ccc(Sc3nnc4ccc(-c5cccc(F)c5)cn34)cc2s1)C1CC1` it was more than 260 °C.
As for `Cc1c(C)c2ccc(OCCCN3CCC(NC(=O)c4ccccc4)CC3)cc2oc1=O`, the figure is 201 to 203 °C; as for `COC(=O)[C@]1(OS(C)(=O)=O)C[C@H](CC(C)C)[C@@H](O)[C@H](OC(=O)c2ccccc2)C1`, 161 to 162 °C.
For the compound `COC(=O)c1nn(Cc2cccc(NC(=O)OC(C)(C)C)c2)c2c1CCc1cc(OCc3cncnc3)ccc1-2`, the melting point was in the range of 221 to 222 °C.
The compound `CC(=O)c1cc(NC(=O)NCCN(CCNC(=O)Nc2cc(C(C)=O)cc(C(C)=O)c2)CCNC(=O)Nc2cc(C(C)=O)cc(C(C)=O)c2)cc(C(C)=O)c1` had a melting point of 197 to 198 °C.
In the case of `COCCCCCCCCCCCc1nnn[nH]1` it was 66.3 to 68.3 °C; in that of `COC(=O)c1ccc(-c2nc(COc3ccc(C=O)cc3OC)c(C)o2)cc1`, 185 to 186 °C.
In the case of `CN(C)C=NS(=O)(=O)c1cc(CCNC(=O)C(F)(F)F)ccc1OCc1ccccc1` it was 103 °C; in that of `CN(C(=O)c1cccc(F)c1[Si](C)(C)C)C(C)(C)C`, 32 to 35 °C; in that of `CCOC(=O)Cn1c(=S)n(Cc2ccc(Cl)c(Cl)c2)c(=S)c2ccccc21`, 155 to 156 °C.
As for `COc1ccc(-c2noc3c2CCCC(C(=O)O)C3)cc1` (centres undefined), the figure is 194 to 196 °C.
`O=C(O)c1ccccc1Oc1ccc2c(c1)CC[C@H](CNC[C@H](O)COc1ccccc1)O2` showed a melting point of 188 °C.
In turn, `O=C(N[C@H](Cc1cccc(OC(F)(F)C(F)F)c1)[C@@H](O)c1csc(-c2ccccc2)n1)c1ccc(F)c2ccccc12` (racemic) showed a melting point of 148 to 150 °C.
Regarding `CC(C)(C)c1ccc(OCC(O)CN2CCC(N3CCC4(CC3)CSC3=C(O4)c4ccccc4C(=O)C3=O)CC2)cc1` (centres undefined), the melting point is 190 to 193 °C.
As to `c1ccc2c(c1)OCC(CCc1ncc[nH]1)O2` (centres undefined), the melting point was 159 to 160 °C.
In turn, `Cc1ccc(-c2c(NS(=O)(=O)c3cccc4ccccc34)ncnc2OCCOc2ncc(Br)cn2)cc1` displayed a melting point of 204 °C.
Consider `O=[N+]([O-])c1ccc2snc(-c3ccccc3)c2c1`, for which the melting point stood at 130 °C.
As for `O=C1NCC(Cn2cncn2)(c2ccc(Cl)cc2Cl)O1` (centres undefined), the figure is 223 °C.
In the case of `Cc1cc(C)c2c(n1)N(CCN1CCOCC1)c1ccccc1N(C)C2=O` it was 133 to 135 °C; in that of `Fc1ccccc1C1=NCc2ccccc2-c2ccc(Br)cc21`, 104 to 105 °C.
As for `O=[N+]([O-])c1ccc(Cl)c2c(Cl)ccnc12`, the figure is 116 to 118 °C; as for `CC1CCCC(C)N1Cc1ccc(NC(=O)C#Cc2ccc(-c3ccc(Cl)cc3)cc2)cc1` (centres undefined), 158 to 163 °C; as for `COc1ccccc1C(=O)c1cccc(Br)n1`, 97 to 98 °C.
Regarding `CCCCn1nc(-c2cc(C(C)(C)C)c(O)c(C(C)(C)C)c2)c2cccnc21`, the melting point fell in the range of 94 to 96 °C.
For the compound `O=C(NCCC1CC1)c1ccc(N2CCN(C(=S)c3ccccc3C(F)(F)F)CC2)nn1`, the melting point lay within 117 to 120 °C.
In the case of `N#CCOc1cc2c(cc1C#Cc1ccccc1)NC(=O)CC(c1cccc(C#N)c1)=N2` it was 212 °C; in that of `Cc1ccc(CC2CCC(C)(C)C2(O)Cn2cncn2)cc1` (centres undefined), 118 to 120 °C; in that of `COc1ccc(-c2nc3cc(Cl)cc(C#CCN(O)C(=O)OC(C)(C)C)c3o2)cc1OC1CCCC1`, 157 to 161 °C.
As for `O=C(CC1c2ccccc2C(=O)N1c1ccccc1)N1CCCCC1` (centres undefined), the figure is 122 to 123 °C.
As for `COc1cc(C2NC(C(=O)O)CS2)ccc1OCC(=O)NCCO[N+](=O)[O-]` (centres undefined), the figure is 151 to 152 °C; as for `CC(C)c1nc(COC(N)=O)n(CCOC(N)=O)c1Sc1cc(Cl)cc(Cl)c1`, 159 to 161 °C.
`COC(=O)NN=Cc1ccnc2ccccc12`: the melting point came to 83.5 °C.
Regarding `CN1CCCC1CCNC(=O)Cn1c(-c2ccc(Cl)cc2)nc2cccnc21` (centres undefined), the melting point was in the range of 170 to 172 °C.
For the compound `Cn1c(=O)[nH]c(=O)n(-c2cc(O)ccc2Br)c1=O`, the melting point fell in the range of 265 to 270 °C.
In the case of `COc1cc(OC)c([C@@H]2CCN(C)C[C@H]2O)c(OC)c1` (relative stereo) it was 96 to 97 °C.
For `CN(C)c1ncc2cc(-c3c(Cl)cccc3Cl)c(=O)n(C)c2n1`, the melting point is 256 to 258 °C.
The compound `COP(=O)(NC1C(=O)N2C(C(=O)OCc3ccc([N+](=O)[O-])cc3)=C(C=CN(C)C)CSC12)OC` (centres undefined) displayed a melting point of 236 to 237 °C.
In the case of `C=CCNc1nc(NNC(C)(C)C)c2scc(C)c2n1` it was 105 to 107 °C; in that of `Cc1nc(CO)ccc1CO`, 94 to 96 °C; in that of `Cc1cnc(NC(=O)C(Cc2ccc(F)cc2)c2ccc(S(C)(=O)=O)cc2)cn1` (centres undefined), 172 to 175 °C.
In the case of `CSc1nnc(SCC2=C(C(=O)O)N3C(=O)C(NC(=O)Cc4csc(=O)s4)C3SC2)s1` (centres undefined) it was 160 °C; in that of `Cc1onc(-c2ccccc2)c1-c1ccc(S(=O)(=O)NC(=O)CC(C)(C)SN=O)cc1`, 138 to 140 °C.
As for `CC1=C2CCC3C(CCC4(C)C3CCC4(C)O)C2(C)CCC1=O` (centres undefined), the figure is 141 to 144 °C; as for `CCNc1nc(Nc2ccccc2)ncc1C(=O)OCC`, 145 to 147 °C.
In turn, `COC(=O)C(Oc1ccc(OCc2ccccc2)cc1)c1ccc(Oc2ccc(Cl)cc2)cc1` (centres undefined) registered a melting point of 88 to 90 °C.
In the case of `CC(C)(C)OC(=O)N1CC=C(c2c[nH]c3ccc([N+](=O)[O-])cc23)CC1` it was 210 to 212 °C; in that of `Cc1ccc(C2c3c(C)c(N4C(=O)CC(c5ccccc5)C4=O)c(C)c(C)c3OC2(C)C)cc1` (centres undefined), 130 to 131 °C.
In the case of `CCCCCCCCCCCCCCOc1ccc(C(=O)C(Br)c2ccc([N+](=O)[O-])cc2)cc1` (centres undefined) it was 55 to 56 °C; in that of `Nc1ccc(CCNC(=O)C(F)(F)F)cc1`, 81 to 85 °C; in that of `Cc1cc(CCCCCOc2ccc(C3=NCCO3)cc2C(=O)O)on1`, 170 to 171 °C.
As for `O=[N+]([O-])c1cccc(O)c1Cl`, the figure is 130 °C; as for `Cc1ccc(C(=O)c2cnn3c(-c4cccc(NC(=O)C5CC5)c4)ccnc23)s1`, 243 to 245 °C; as for `CCCCOc1ccc(Nc2c([N+](=O)[O-])ccc(Cl)c2C(=O)O)cc1`, 166 to 169 °C.
Turning to `CC(C)(C)OC(=O)N(CC(=O)OCN1C(=O)CCC(N2C(=O)c3ccccc3C2=O)C1=O)C(=O)CN` (centres undefined), the melting point fell in the range of 178 to 181 °C.
The compound `Nc1c(Br)cc(Oc2cc(Br)c(N)c(Br)c2)cc1Br` displayed a melting point of 166 to 167 °C.
As for `O=C(Nc1ccc2ccc(Cl)nc2n1)c1cncs1`, the figure is 292 °C.
In the case of `O=C(O)C1Oc2cc(Cl)c(S(=O)(=O)c3ccc4c(c3)OCO4)cc2O1` (centres undefined) it was 182 to 184 °C.
